The values below come from patent US8946302B2, “Selective sigma-1 receptor ligands” (Wisconsin Alumni Research Foundation, priority 2008, dated 2015).

Data set [1] has as its target T1, sigma-1 receptor (Cavia porcellus, UniProt Q60492). In words: Affinity for the sigma-1 receptor (Table 3). Format: binding. The arrangement: from tissue. As to conditions: read-out: Sigma-1 KD.
A further data set addresses T2, σ-1 Sites (Cavia porcellus, UniProt Q60492).
T2 construct: from tissue
Put plainly: σ-1 sites radioligand binding, guinea pig liver membranes (Table 2). Conditions: for Ki: guinea pig liver membranes.

Another data set addresses T3, σ-2 Sites (Rattus norvegicus, UniProt Q5U3Y7).
T3 construct: from tissue
T3 sequence (Q5U3Y7 1-176): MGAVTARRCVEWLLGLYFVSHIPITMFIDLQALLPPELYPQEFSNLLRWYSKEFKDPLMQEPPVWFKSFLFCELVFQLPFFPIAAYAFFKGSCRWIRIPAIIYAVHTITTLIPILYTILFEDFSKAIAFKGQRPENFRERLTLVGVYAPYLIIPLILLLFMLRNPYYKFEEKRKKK
In words: σ-2 sites radioligand binding, rat liver membranes (Table 2).

The target in data set [2] is T4, purified sigma-1 receptor (Cavia porcellus, UniProt Q60492).
T4 construct: made in house; host or cells: E. coli BL21 DE3
T4 sequence (Q60492 whole entry): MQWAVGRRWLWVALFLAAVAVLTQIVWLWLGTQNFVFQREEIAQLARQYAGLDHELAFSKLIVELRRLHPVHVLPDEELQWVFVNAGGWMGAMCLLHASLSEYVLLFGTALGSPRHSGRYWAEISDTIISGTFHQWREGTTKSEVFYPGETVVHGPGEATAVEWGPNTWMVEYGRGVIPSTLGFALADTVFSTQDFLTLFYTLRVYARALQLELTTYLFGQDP
Put plainly: Competitive displacement of [3H]-(+)-pentazocine at the pure sigma-1 receptor. Format: binding, guinea pig. As to conditions: [3H]-(+)-pentazocine, read-out: Ki Pure σ-1R. On the procedure:
A guinea pig sigma-1 receptor was purified as previously described (Ramachandran et al., Protein Expr. Purif., 2007. 51(2): 283-92). The pMal P2X plasmid (New England Biolabs) encoding the guinea pig sigma-1 receptor on the C-terminus of the E. coli Maltose Binding Protein was used for purification. The sigma-1 receptor on its C-terminus carried a hexa-histadine epitope tag. Protein was expressed in the E. coli strain BL21 DE3 (Novagen) with 0.6 mM IPTG. The E. coli pellet was sonicated and centrifuged at 100,000 g for 1 hour to separate the particulate and soluble fractions. The particulate fraction was extracted with Triton X-100, centrifuged and the extract was loaded onto an amylose resin (New England Biolabs, E-802). After washing the resin with buffer containing 0.5% Triton X-100, the MBP-sigma-1 receptor fusion protein was eluted with buffer containing 10 mM maltose.
The MBP-sigma-1-receptor fusion protein was cleaved with Factor Xa protease (Novagen) at room temperature for 24-48 hours and the cleavage was monitored with SDS-polyacrylamide gel electrophoresis. The sigma-1 receptor from the Factor Xa cleavage was purified with a HIS-Select HC Nickel affinity gel (Sigma-Aldrich P6611) in a batch format. The resin was washed with buffer containing 0.5% Triton X-100 detergent and the beads were separated by a brief centrifugation at 4000 rpm in a microcentrifuge. After washing to remove MBP, the pure sigma-1 receptor was eluted in buffer containing 250 mM imidazole.
To remove the undigested MBP-sigma-1 receptor fusion protein that is carried over in the Ni^2+ purification, the eluate from the Ni^2+ purification was incubated with Anti-MBP antibody conjugated to agarose (Vector Laboratories, Burlingame, Calif.) at 4° C. for 18-24 hours. The beads were separated by centrifugation and the supernatant contained the pure sigma-1 receptor.
Competition ligand binding to the pure sigma-1 receptor was performed as previously described. […] After incubation at 30° C. for 60 minutes, the reaction was terminated by rapid filtration through glass fiber filters (Whatman GF/B), using a Brandel cell harvester (Brandel, Gaithersburg, Md.). The glass fiber filters were pre-soaked in 0.5% polyethyleneimine (PEI) for at least 1 hour at room temperature (˜23° C.). Filters were washed 4 times with 4 mL of ice-cold 50 mM Tris-C1, pH 8.0. Radioactivity was quantified by liquid scintillation counting using a Packard model 1600 CA scintillation counter.
For orientation: Displacement assays read how much labelled ligand stays bound in the presence of the test substance.

The test system of another data set is tumor cell lines. In words: Cytotoxicity assays, various tumor cell lines (statements in words). In kind it is cell-based, human. How it is done: Because sigma-1 receptors are overexpressed in numerous tumor cell lines, which include breast cancer, lung carcinoma, renal carcinoma, colon carcinoma, sarcoma, brain tumors, melanoma, glioblastoma, neuroblastoma, and prostate cancer, the ability of the compounds to inhibit the growth of various tumor cell lines were tested.
(§1) Multi-plex cytotoxicity assays were performed by the Keck-UWCCC Small Molecule Screening Facility (Madison, Wis.). Specific methodology can be found online at http://hts.wisc.edu/Resources.htm#mpa.

The next data set relates to SKOV-3. Put plainly: Cytotoxicity assay SKOV-3. In kind it is cell-based. As to conditions: Homo sapiens, SK-OV-3, HU Ovarian, read-out: IC50 (SE) growth inhibition. How it is done: as §1
In a further data set the test system is MCF7. In words: Cytotoxicity assay MCF7. Conditions: Homo sapiens, HU Breast, read-out: IC50 (SE) growth inhibition. In kind it is cell-based. How it is done:
as §1

For another data set, the system named is MB-MDA-231. In words: Cytotoxicity assay MB-MDA-231. In kind it is cell-based. As to conditions: Homo sapiens, HU Breast, read-out: IC50 (SE) growth inhibition. How it is done: as §1
The subject of another data set is SF268. In words: Cytotoxicity assay SF268. Format: cell-based. As to conditions: Homo sapiens, SF-268, HU CNS, read-out: IC50 (SE) growth inhibition. On the procedure:
as §1

The subject of the next data set is HI299. In words: Cytotoxicity assay HI299. Format: cell-based. Conditions: Homo sapiens, HU Lung, read-out: IC50 (SE) growth inhibition. How it is done:
as §1

The next data set relates to HT-29. Put plainly: Cytotoxicity assay HT-29. In kind it is cell-based. As to conditions: Homo sapiens, HU Colorectal, read-out: IC50 (SE) growth inhibition. How it is done: as §1
For the next data set, the system named is MCP10A. In words: Cytotoxicity assay MCP10A. Format: cell-based. As to conditions: Homo sapiens, HU Breast, read-out: IC50 (SE) growth inhibition. On the procedure:
as §1

The target of another data set is T5, sigma-2 receptor (Rattus norvegicus, UniProt Q5U3Y7).
T5 sequence (Q5U3Y7 1-176): T3 sequence (Q5U3Y7 1-176)
In words: Sigma-2 competitive binding, [3H]-DTG with (+)-pentazocine, rat liver membranes (Example 6). Conditions: rat liver membranes, n = 3; read-out: Sigma2 KD values. The arrangement: from tissue; host or cells: rat liver membranes.

A further data set deals with HCT-45. Put plainly: Cytotoxicity assay HCT-45. In kind it is cell-based. Conditions: Homo sapiens, HU Colorectal, read-out: IC50 (SE) growth inhibition. On the procedure:
as §1

For another data set, the system named is A549. In words: Cytotoxicity assay A549. In kind it is cell-based. As to conditions: Homo sapiens, HU lung, read-out: IC50 (SE) growth inhibition. How it is done:
as §1

The next data set relates to Du145. Put plainly: Cytotoxicity assay Du145. Format: cell-based. As to conditions: Homo sapiens, DU-145, HU Prostate, read-out: IC50 (SE) growth inhibition. On the procedure: as §1
Another data set concerns NCI-H460. Put plainly: Cytotoxicity assay NCI-H460. As to conditions: Homo sapiens, HU lung, read-out: IC50 (SE) growth inhibition. In kind it is cell-based. How it is done: as §1
For data set [3], the target named is T1, sigma-1 receptor. Put plainly: Sigma-1 competitive binding, (+)-[3H]pentazocine, guinea pig liver membranes (Example 6).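 For all read-outs here: compounds tested over serial concentrations, 45 min incubation at 30 °C with membrane preparations, read-out is displacement of bound radioligand from the receptor.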 Conditions: for Kd: guinea pig liver membranes, n = 3, read-out: Sigma 1 KD values. Also noted: from tissue; host or cells: guinea pig liver membranes.
Procedure: (§2) Minced frozen rat livers or guinea pig livers (65 g) were thawed in 100 mL homogenization buffer (10 mM phosphate buffer pH 7.4 containing 0.32M sucrose, 1 M MgSO4, 0.5 M EGTA, 1 mM phenylmethylsulphonyl fluoride (PMSF), 10 μg/mlleupeptin, 1 μg/ml pepstatin A, 10 μg/ml p-toluenesulfonyl-L-arginine methyl ester (TAME) and then homogenized on ice with a Brinkman polytron homogenizer (setting 6, 4 bursts of 10 second each) followed by a glass homogenizer (Teflon pestle by 6 slow passes at 3,000 rpm). The homogenized tissues were then centrifuged at 17,000 g for 10 minutes. The supernatants were re-centrifuged at 100,000 g for 1 hour. The microsomal pellets were resuspended in homogenization buffer, snap frozen with dry ice-ethanol, and stored at −80° C. at a final protein concentration of 20 mg/mL.
(§3) Assays for sigma-1 were performed using 10 nM (+)-[^3H]pentazocine in guinea pig liver homogenates (25 μg/well) incubated at 30° C. for 1 hour with several concentrations of competing ligands. After incubation, membranes were harvested on a 0.5% PEI-treated Whatman GF/B filters using a Brandel Cell Harvester. (+)-[^3H]pentazocine binding was determined by liquid scintillation counting. […] Serial concentrations of the compounds evaluated were added to the reactions for 45 minutes at 30° C. and the samples vacuum filtered through 0.5% polyethyleneimine (PEI) treated Whatman GF/B as described above to measure displacement of the radioligands from the sigma receptor subtypes.

T1 sequence (Q60492 whole entry): as above
T2 sequence (Q60492 whole entry): as above
Procedure for sigma-2 receptor: as §2, §3
Procedure for σ-1 Sites: as §3
Procedure for σ-2 Sites: as §3

Regarding `CCCCCCCNCCCc1ccc([N+](=O)[O-])cc1` [Compound 1d, N-(3-(4-Nitrophenyl)propyl)heptane-1-amine], the Kd (commonly the concentration at which binding is half-saturated) at sigma-1 receptor [1] was determined as 0.0057 µM. Also, the Ki (as a rule, the dissociation constant of the complex between target and ligand, obtained from inhibition or displacement) is 0.01 µM at σ-1 Sites, 0.011 µM on σ-2 Sites and 0.0075 ± 0.0012 µM in data set [2]. Further, at σ-1 Sites (σ-2 rat liver / σ-1 guinea pig liver membranes), the “σ-1 selectivity σ-2 Ki/σ-1 Ki” value is listed as 1. Besides, the “cytotoxicity / tumor cell growth inhibition” value with tumor cell lines was “remarkable activity for inhibiting tumor growth”.
Turning to `CCCCCCCCCCCCNCCCc1ccc([N+](=O)[O-])cc1` [Compound 1f, N-(3-(4-Nitrophenyl)propyl)dodecan-1-amine], the Kd at sigma-1 receptor [1] stood at 0.00039 µM. Besides, the Ki is 5.17 µM at σ-1 Sites, 2.38 µM at σ-2 Sites and 0.0318 µM in [2]. For the same compound, the “cytotoxicity / tumor cell growth inhibition” value in the data set with tumor cell lines is “remarkable activity for inhibiting tumor growth”.
As for `CCCCN(CCCC)CCCc1ccc(F)cc1` [Compound 10, N,N-Dibutyl-3-(4-fluorophenyl)propylamine], the IC50 – broadly, the concentration that inhibits the measured activity by half – with SKOV-3 is 56.2 µM; with MCF7 it was above 100 µM; with MB-MDA-231, above 100 µM; in the data set with SF268 it was above 100 µM; in the data set with HI299, above 100 µM; with HT-29, above 100 µM. Also, the IC50 with MCP10A, in the data set with HCT-45, in the data set with A549, in the data set with Du145 and in the data set on NCI-H460 was above 100 µM in each case. The Kd amounted to 0.685 µM at sigma-2 receptor and 0.0177 µM on sigma-1 receptor [3]. Moreover, the “Ratio (σ2/σ1)” value on sigma-1 receptor [3] was found to be 38.7.
Turning to `CCCCN(CCCC)CCCc1ccc([N+](=O)[O-])cc1` [Compound 11, N,N-Dibutyl-3-(4-nitrohenyl)propylamine], the IC50 with SKOV-3 is 27.9 µM; in the data set on MCF7, 22.4 µM; in the data set with MB-MDA-231, 57.1 µM; in the data set on SF268, above 100 µM; with HI299, above 100 µM; with HT-29 it was above 100 µM. For the same compound, the IC50 was above 100 µM in the data set with MCP10A; above 100 µM in the data set on HCT-45; above 100 µM in the data set with A549; 32.7 µM with Du145; 40.5 µM in the data set on NCI-H460. Besides, the Kd on sigma-2 receptor is 0.404 µM; on sigma-1 receptor [3], 0.0003 µM. Also, in the data set on tumor cell lines, the “cytotoxicity / tumor cell growth inhibition” value was “robustly inhibits growth in MB-MDA231, MCF7, Du145, and NCI-H460 cell lines in addition to SKOV-3 cells”. On sigma-1 receptor [3], the “Ratio (σ2/σ1)” value was found to be 1347.
With `CCCN(CCCc1ccc(F)cc1)Cc1ccc(N)cc1` [Compound 17, N-Propyl-N-(4-amino-benzyl)-3-(4-fluorophenyl)propylamine], the IC50 with SKOV-3, with MCF7, with MB-MDA-231, with SF268, in the data set on HI299 and in the data set on HT-29 was above 100 µM throughout. The IC50 with MCP10A, with HCT-45, in the data set with A549, with Du145 and with NCI-H460 was above 100 µM throughout. Also, the Kd at sigma-2 receptor is 2.15 µM; on sigma-1 receptor [3], 0.164 µM. The “cytotoxicity / tumor cell growth inhibition” value in the data set with tumor cell lines is “lacked any cytotoxic properties”. Moreover, the “Ratio (σ2/σ1)” value at sigma-1 receptor [3] is given as 13.11 ^.
As for `CCCN(CCCc1ccc([N+](=O)[O-])cc1)CCc1ccc(N)cc1` [Compound 18, N-Propyl-N-4-aminophenylethyl-3-(4-nitrophenyl)propylamine], the IC50 with SKOV-3 is above 100 µM; with MCF7, 86.1 µM; with MB-MDA-231, above 100 µM; with SF268, above 100 µM; with HI299, above 100 µM; with HT-29 it was above 100 µM. For the same compound, the IC50 in the data set on MCP10A, in the data set with HCT-45, in the data set with A549, in the data set on Du145 and in the data set with NCI-H460 was above 100 µM each time. The Kd at sigma-2 receptor amounted to 0.0836 µM. On sigma-1 receptor [3], the “Ratio (σ2/σ1)” value was 13.93 ^.
In the case of `CCCN(CCCc1ccc(F)cc1)CCc1ccc(N=[N+]=[N-])c(I)c1` [HD5], the “cytotoxicity / tumor cell growth inhibition” value with tumor cell lines was “potent cell growth inhibitor of both MB-MDA-231 and MCF7”.
